# Reference: patent US20240365781A1, “SYNERGISTICALLY EFFECTIVE HERBICIDE COMPOSITION COMPRISING PELARGONIC ACID AND FLAZASULFURON” (Belchim Crop Protection NV, priority 2017, published 2024)
# Assays:
# Assay type in all cases: in vivo
# [1] = tested on: Epilobium tetragonum; experiment: post-emergence field trial under rows of vines, 150-200 L water/ha (Examples 6-9); settings: flazasulfuron 40 g/ha
# [2] = tested on: Geranium molle; experiment: as above; settings: 15 d, flazasulfuron 40 g/ha
# [3] = tested on: Echinochloa crusgalli; experiment: post-emergence test, field trial (Examples 1-5); settings: FT
# Source text: (§1) The expected activity of a given combination of two or three herbicides can be calculated as follows according to a calculation method by Colby (cf. COLBY, S. R.: “Calculating synergistic and antagonistic responses of herbicide combinations”, • Weeds 15, pages 20-22, 1967): • If X=% damage by herbicide (A) at an application rate of m g/ha, • Y=% damage by herbicide (B) at an application rate of n g/ha, • E=the expected damage by herbicides (A) and (B) at application rates of m and n […] and, • then for a combination:
# (§2) Individual compositions comprising pelargonic acid or flazasulfuron are compared with a herbicide composition according to the invention comprising pelargonic acid and flazasulfuron.
# (§3) Herbicidal activity was determined by performing a post-emergence test. […] The corresponding mixture was in the form of a spray liquor. Besides, spray liquors of individual compositions comprising pelargonic acid or flazasulfuron were used.
# (§4) Tests were performed on test fields (field trials) or in pots (pot trials).
# [4] = tested on: Festuca ovina; experiment: post-emergence test, field trial (Examples 1-5); settings: FT
# Source text: as §1, §2, §3, §4
# [5] = tested on: Plantago major; experiment: post-emergence test, field trial (Examples 1-5); settings: FT
# Source text: as §1, §2, §3, §4
# [6] = tested on: Convolvulus arvensis L.; experiment: post-emergence test, field trial (Examples 1-5); settings: 3 d, FT; pelargonic acid 5440 g/ha, flazasulfuron 50 g/ha; 8 L/ha
# Source text: as §1, §2, §3, §4
# [7] = tested on: Veronica persica; experiment: post-emergence test, field trial (Examples 1-5); settings: FT, pelargonic acid 5440 g/ha, flazasulfuron 50 g/ha, 8 L/ha
# Source text: as §1, §2, §3, §4
# [8] = tested on: Erodium cicuta; experiment: post-emergence test, field trial (Examples 1-5); settings: 28 d, FT; pelargonic acid 5440 g/ha, flazasulfuron 50 g/ha; 8 L/ha
# Source text: as §1, §2, §3, §4
# [9] = tested on: Lolium sp.; experiment: post-emergence test, field trial (Examples 1-5); settings: 7 d, FT; pelargonic acid 5440 g/ha, flazasulfuron 50 g/ha; 8 L/ha
# Source text: as §1, §2, §3, §4
# [10] = tested on: Chenopodium album; experiment: post-emergence test, field trial (Examples 1-5); settings: FT
# Source text: as §1, §2, §3, §4
# [11] = tested on: Sonchus oleraceus L.; experiment: post-emergence test, field trial (Examples 1-5); settings: FT, pelargonic acid 5440 g/ha, flazasulfuron 50 g/ha, 8 L/ha
# Source text: as §1, §2, §3, §4
# [12] = tested on: Anagallis arvensis; experiment: post-emergence test, field trial (Examples 1-5); settings: 3 d, FT; pelargonic acid 5440 g/ha, flazasulfuron 50 g/ha; 8 L/ha
# Source text: as §1, §2, §3, §4
# [13] = 3 d, pelargonic acid 10880 g/ha, flazasulfuron 25 g/ha, 16 L/ha
# [14] = 3 d, pelargonic acid 21760 g/ha, flazasulfuron 25 g/ha, 32 L/ha
# [15] = 7 d, pelargonic acid 10880 g/ha, flazasulfuron 25 g/ha, 16 L/ha
# [16] = 7 d, pelargonic acid 10880 g/ha, flazasulfuron 50 g/ha, 16 L/ha
# [17] = 7 d, pelargonic acid 21760 g/ha, flazasulfuron 50 g/ha, 32 L/ha
# [18] = 13 d, pelargonic acid 10880 g/ha, flazasulfuron 25 g/ha, 16 L/ha
# [19] = 13 d, pelargonic acid 10880 g/ha, flazasulfuron 50 g/ha, 16 L/ha
# [20] = 13 d, pelargonic acid 21760 g/ha, flazasulfuron 25 g/ha, 32 L/ha
# [21] = 13 d, pelargonic acid 21760 g/ha, flazasulfuron 50 g/ha, 32 L/ha
# [22] = 23 d, pelargonic acid 10880 g/ha, flazasulfuron 25 g/ha, 16 L/ha
# [23] = 23 d, pelargonic acid 10880 g/ha, flazasulfuron 50 g/ha, 16 L/ha
# [24] = 23 d, pelargonic acid 21760 g/ha, flazasulfuron 25 g/ha, 32 L/ha
# [25] = 23 d, pelargonic acid 21760 g/ha, flazasulfuron 50 g/ha, 32 L/ha
# [26] = 30 d, pelargonic acid 10880 g/ha, flazasulfuron 25 g/ha, 16 L/ha
# [27] = 30 d, pelargonic acid 21760 g/ha, flazasulfuron 25 g/ha, 32 L/ha
# [28] = 38 d, pelargonic acid 10880 g/ha, flazasulfuron 25 g/ha, 16 L/ha
# [29] = 38 d, pelargonic acid 21760 g/ha, flazasulfuron 25 g/ha, 32 L/ha
# [30] = 7 d, pelargonic acid 21760 g/ha, flazasulfuron 25 g/ha, 32 L/ha
# [31] = 3 d, pelargonic acid 10880 g/ha, flazasulfuron 50 g/ha, 16 L/ha
# [32] = 3 d, pelargonic acid 21760 g/ha, flazasulfuron 50 g/ha, 32 L/ha
# [33] = 30 d, pelargonic acid 10880 g/ha, flazasulfuron 50 g/ha, 16 L/ha
# [34] = 30 d, pelargonic acid 21760 g/ha, flazasulfuron 50 g/ha, 32 L/ha
# [35] = 38 d, pelargonic acid 10880 g/ha, flazasulfuron 50 g/ha, 16 L/ha
# [36] = 38 d, pelargonic acid 21760 g/ha, flazasulfuron 50 g/ha, 32 L/ha
compound,measurement,setting,value
"COc1cc(OC)nc(NC(=O)NS(=O)(=O)c2ncccc2C(F)(F)F)n1 [Flazasulfuron, 1-(4,6-dimethoxypyrimidin-2-yl)-3-(3-trifluoromethyl-2-pyridylsulfonyl)urea]",herbicidal effect,"[1]; 7 d, pelargonic acid 5440 g/ha",61%
same,herbicidal effect,"[1]; 7 d, pelargonic acid 8160 g/ha",61%
same,herbicidal effect,"[1]; 7 d, pelargonic acid 10880 g/ha",61%
same,herbicidal effect,"[1]; 14 d, pelargonic acid 6800 g/ha",96%
same,herbicidal effect,"[1]; 14 d, pelargonic acid 8160 g/ha",96%
same,herbicidal effect,"[1]; 14 d, pelargonic acid 10880 g/ha",96%
same,herbicidal effect,"[1]; 27 d, pelargonic acid 6800 g/ha",96%
same,herbicidal effect,"[1]; 27 d, pelargonic acid 8160 g/ha",96%
same,herbicidal effect,"[1]; 27 d, pelargonic acid 10880 g/ha",96%
same,herbicidal effect,"[1]; 56 d, pelargonic acid 6800 g/ha",96%
same,herbicidal effect,"[1]; 56 d, pelargonic acid 8160 g/ha",96%
same,herbicidal effect,"[1]; 56 d, pelargonic acid 10880 g/ha",96%
same,herbicidal effect,[2]; pelargonic acid 5440 g/ha,63%
same,herbicidal effect,[2]; pelargonic acid 6800 g/ha,63%
same,herbicidal effect,[2]; pelargonic acid 8160 g/ha,63%
same,herbicidal effect,[2]; pelargonic acid 10880 g/ha,63%
same,herbicidal effect,"[3]; 3 d, pelargonic acid 5440 g/ha, flazasulfuron 50 g/ha, 8 L/ha",2.5%
same,herbicidal effect,[3]; [13],0%
same,herbicidal effect,[3]; [14],0%
same,herbicidal effect,"[3]; 7 d, pelargonic acid 5440 g/ha, flazasulfuron 50 g/ha, 8 L/ha",13.3%
same,herbicidal effect,[3]; [15],40%
same,herbicidal effect,[3]; [16],20%
same,herbicidal effect,[3]; [17],20%
same,herbicidal effect,"[3]; 12 d, pelargonic acid 5440 g/ha, flazasulfuron 50 g/ha, 8 L/ha",37.3%
same,herbicidal effect,[3]; [18],40%
same,herbicidal effect,[3]; [19],30%
same,herbicidal effect,[3]; [20],40%
same,herbicidal effect,[3]; [21],30%
same,herbicidal effect,[3]; [22],40%
same,herbicidal effect,[3]; [23],0%
same,herbicidal effect,[3]; [24],40%
same,herbicidal effect,[3]; [25],0%
same,herbicidal effect,"[3]; 26 d, pelargonic acid 5440 g/ha, flazasulfuron 50 g/ha, 8 L/ha",99%
same,herbicidal effect,[3]; [26],90%
same,herbicidal effect,[3]; [27],90%
same,herbicidal effect,[3]; [28],90%
same,herbicidal effect,[3]; [29],90%
same,herbicidal effect,"[3]; 72 d, pelargonic acid 5440 g/ha, flazasulfuron 50 g/ha, 8 L/ha",96.3%
same,herbicidal effect,[4]; [13],0%
same,herbicidal effect,[4]; [14],0%
same,herbicidal effect,[4]; [15],30%
same,herbicidal effect,[4]; [16],20%
same,herbicidal effect,[4]; [30],30%
same,herbicidal effect,[4]; [17],20%
same,herbicidal effect,[4]; [18],30%
same,herbicidal effect,[4]; [19],20%
same,herbicidal effect,[4]; [20],30%
same,herbicidal effect,[4]; [21],20%
same,herbicidal effect,[4]; [22],75%
same,herbicidal effect,[4]; [23],0%
same,herbicidal effect,[4]; [24],75%
same,herbicidal effect,[4]; [25],0%
same,herbicidal effect,[4]; [26],75%
same,herbicidal effect,[4]; [27],75%
same,herbicidal effect,[4]; [28],80%
same,herbicidal effect,[4]; [29],80%
same,herbicidal effect,[5]; [13],0%
same,herbicidal effect,[5]; [31],10%
same,herbicidal effect,[5]; [32],10%
same,herbicidal effect,[5]; [15],25%
same,herbicidal effect,[5]; [16],0%
same,herbicidal effect,[5]; [30],25%
same,herbicidal effect,[5]; [17],0%
same,herbicidal effect,[5]; [18],10%
same,herbicidal effect,[5]; [19],20%
same,herbicidal effect,[5]; [20],10%
same,herbicidal effect,[5]; [21],20%
same,herbicidal effect,[5]; [24],10%
same,herbicidal effect,[5]; [25],0%
same,herbicidal effect,[5]; [26],35%
same,herbicidal effect,[5]; [33],0%
same,herbicidal effect,[5]; [27],35%
same,herbicidal effect,[5]; [34],0%
same,herbicidal effect,[5]; [28],10%
same,herbicidal effect,[5]; [35],10%
same,herbicidal effect,[5]; [29],10%
same,herbicidal effect,[5]; [36],10%
same,herbicidal effect,[6],0%
same,herbicidal effect,[7]; 3 d,2.5%
same,herbicidal effect,[7]; 7 d,7.5%
same,herbicidal effect,[7]; 56 d,16.3%
same,herbicidal effect,[8],95%
same,herbicidal effect,[9],2.5%
same,herbicidal effect,[10]; [13],10%
same,herbicidal effect,[10]; [31],15%
same,herbicidal effect,[10]; [14],10%
same,herbicidal effect,[10]; [32],15%
same,herbicidal effect,[10]; [15],40%
same,herbicidal effect,[10]; [16],0%
same,herbicidal effect,[10]; [30],40%
same,herbicidal effect,[10]; [17],0%
same,herbicidal effect,[10]; [18],15%
same,herbicidal effect,[10]; [19],0%
same,herbicidal effect,[10]; [20],15%
same,herbicidal effect,[10]; [21],0%
same,herbicidal effect,[10]; [22],20%
same,herbicidal effect,[10]; [24],20%
same,herbicidal effect,[10]; [25],0%
same,herbicidal effect,[10]; [26],20%
same,herbicidal effect,[10]; [33],0%
same,herbicidal effect,[10]; [27],20%
same,herbicidal effect,[10]; [34],0%
same,herbicidal effect,[10]; [28],20%
same,herbicidal effect,[10]; [35],0%
same,herbicidal effect,[10]; [29],20%
same,herbicidal effect,[10]; [36],0%
same,herbicidal effect,[11]; 3 d,0%
same,herbicidal effect,[11]; 7 d,0%
same,herbicidal effect,[11]; 13 d,2.5%
same,herbicidal effect,[11]; 28 d,12.5%
same,herbicidal effect,[11]; 58 d,10%
same,herbicidal effect,[12],1.3%
